Source: patent US6420571B2, “Methods for preparing antiviral calanolide compounds” (Sarawak MediChem Pharmaceuticals, Inc., priority 1999, dated 2002)

How the values were obtained:
[1] = tested on: pyridinone-resistant A17 virus; conditions: cited from earlier work
[2] = tested on: AZT-resistant G-9106 strain of HIV; conditions: cited from earlier work
[3] = tested on: HIV-1; conditions: down to a concentration of 0.1 μM; cited from earlier work
[4] = tested on: HIV-1; conditions: CEM-SS cells; read-out: EC50, HIV-1 replication; cited from earlier work

Structure (SMILES)	melting point	activity against pyridinone-resistant A17 virus [1]	activity against AZT-resistant G-9106 strain of HIV [2]	protection against the cytopathic effects of HIV-1 [3]	EC50 [4]
CCCc1cc(=O)oc2cc(OC(=O)C(C)(C)C)cc(O)c12	158 to 160 °C				
CCCc1cc(=O)oc2c3c(c4c(c12)OC(C)(C)C=C4)O[C@H](C)[C@@H](C)[C@@H]3O [(+)-calanolide A]		active	active	100%	100 nM
